How the values were obtained:
Type in all cases: cell-based
[1] = system: Jurkat human leukemia T cells; test: NuMA release into supernatant (ELISA); conditions: for % NuMA released (treated vs untreated cells): Jurkat, 50 μM sequence
Protocol: (§1) The redistribution of phosphatidylserine in the plasma membrane during apoptosis was measured by flow cytometry using FITC-conjugated annexin V (BD Pharmingen, San Diego, Calif.). NuMA release into the supernatant was determined using a commercial ELISA kit (Oncogen/Calbiochem, Cambridge, Mass.).
Jurkat human leukemia T cells were incubated with 50 μM of 3, 4, 5, 6 and 7 GT base sequences, a 5 base ACGT sequence, 6 base AG, GG, AGT and CGT sequences and a 7 base GG sequence.
Jurkat human leukemia T cells (1×10^6/ml) were incubated with 6 and 27 GT base sequences (Table 32). NuMA was determined as in Example 23.
Jurkat human cell leukemia T cells were incubated for 24 h with 6 base GT SEQ ID NO:25, complementary 6 base AC SEQ ID NO:79, and 6 base GT SEQ ID NO:25+6 base AC SEQ ID NO:79. GT SEQ ID NO:25 and AC SEQ ID NO:79 were hybridized by mixing the sequences (1:1) and heating for 10 minutes at 65° C. As controls, GT SEQ ID NO:25 and AC SEQ ID NO:79 were heated for 10 minutes at 65° C. (Table 33). Apoptosis was evaluated as in Example 23.

[2] = system: Jurkat human leukemia T cells; test: Apoptosis by phosphatidylserine/annexin V-FITC flow cytometry; conditions: 50 μM sequence
Protocol: as §1
Jurkat human leukemia T cells were incubated with 50 μM of 3, 4, 5, 6 and 7 GT base sequences, a 5 base ACGT sequence, 6 base AG, GG, AGT and CGT sequences and a 7 base GG sequence. […]
Jurkat human leukemia T cells were incubated with GT-rich or AC-rich sequences derived from the murA gene of Mycobacterium phlei (GenBank: Accession Number X99776). Inhibition of proliferation was measured by the reduction of MTT as in Example 3, cell cycle arrest was detected by flow cytometry using propidium iodide as in Example 21 and apoptosis was evaluated by flow cytometry using annexin-V-FITC as in Example 23.

[3] = system: Jurkat human leukemia T cells; test: Inhibition of Jurkat human leukemia T cell proliferation (MTT reduction); conditions: 100 μg/ml sequence, 48 h, 2.5×10^5 cells/ml
Method in brief: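 Jurkat cells at 2.5×10^5 cells/ml exposed to 100 μg/ml of 2–45-base A/C/G/T sequences (0 μg/ml control) for 48 h, 37° C, 5% CO2. Viability by MTT reduction read at 570 nm.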

[4] = system: THP-1 human acute monocytic leukemia cells; test: Cytokine production by THP-1 cells (ELISA); conditions: THP-1, 1×10^6 cells, 100 μg/ml, 48 h; for ↑ IL-12 (fold increase treated vs control cells): p70 complex and free p40
Method in brief: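 1×10^6 cells exposed to 100 μg/ml of each oligonucleotide sequence for 48 h at 37° C in 5% CO2, unless stated otherwise. Cytokines quantified in culture supernatant by ELISA, IL-12 assay detecting both p70 and free p40; values are fold increase over untreated control cells.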

rhesus monkey PBMCs = test: Cytokine production by rhesus monkey PBMC (ELISA); conditions: PBMC of 4 healthy rhesus monkeys, 100 μg/ml, 48 h
Protocol: (§2) Unless stated otherwise, 1×10^6 cells were incubated with 100 μg/ml of each of the sequences tested for 48 h at 37° C. in 5% CO2. Production of cytokines IL-6, IL-10, IL-12, IL-1beta and TNF-alpha was determined in pg/ml in 100 μl of culture supernatant using the appropriate commercial ELISA (BioSource, Camarillo Calif.). The IL-12 ELISA measures both IL-12 p70 complex and free p40 subunit. Results are expressed as the “fold” (×) increase in cytokine production by treated cells compared to control cells.
PBMCs were isolated from 4 healthy rhesus monkeys as in Example 35. PBMCs were incubated with 6 base GT, AGT, CGT, AG, CG ands GG sequences and production of the cytokines IL-6, IL-12 and TNF-alpha was determined (Table 42).

[5] = system: human peripheral blood mononuclear cells; test: Cytokine production by human PBMC (ELISA); conditions: PBMC of 7 healthy humans, 100 μg/ml, 48 h
Protocol: as §2
Peripheral blood mononuclear cells (hereinafter, “PBMCs”) were isolated from 7 healthy humans by Ficoll-Hypaque (Amersham Pharmacia Biotech, Baie d'Urfée, Québec, Canada) by density gradient centrifugation of whole blood. PBMCs were incubated with 6 base GT, AGT, CGT, AG, CG and GG sequences and production of the cytokines IL-1beta, IL-6, IL-10 and IL-12 were determined.

chimpanzee PBMCs = test: Cytokine production by chimpanzee PBMC (ELISA); conditions: PBMC of 4 healthy chimpanzees, 100 μg/ml, 48 h
Protocol: as §2
PBMCs were isolated from 4 healthy chimpanzees as in Example 35. Chimpanzee PBMCs were incubated with 6 base GT, AGT, CGT, AG, CG and GG sequences and production of the cytokines IL-10, IL-12 and TNF-alpha was determined (Table 41).

[6] = system: Jurkat human leukemia T cells; test: Cell cycle stage in Jurkat cells (propidium iodide flow cytometry); conditions: Jurkat, 24 h, 100 μg/ml
Method in brief: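 Exponentially growing Jurkat cells were exposed for 24 h to 2–45-base A/C/G/T oligonucleotides, or at 1×10^6 cells/ml to 6-base GT and AC strands, alone (heated 10 min, 65 °C) or hybridized 1:1. Detergent-, trypsin-, RNase- and spermine-treated nuclei were propidium iodide-stained and scored for G0/G1, early/mid/late S and G2/M by doublet-discriminating flow cytometry.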

AAGTAA [SEQ ID NO:27]
% NuMA released (treated vs untreated cells) [1]: 56% | % of cells in apoptosis (positive for PS/A-V staining) [2]: 20% | % INHIBITION of Jurkat human leukemia T cell proliferation [3]: 13% | ↑ IL-6 (fold increase treated vs control cells) [4]: 12.8x | ↑ IL-12 (fold increase treated vs control cells) [4]: 6.0x | IL-10 fold increase: mean +/− SD (rhesus monkey PBMCs): 0.9 +/− 0.1 fold increase | IL-12 fold increase: mean +/− SD (rhesus monkey PBMCs): 7.6 +/− 2.6 fold increase | TNF-alpha fold increase: mean +/− SD (rhesus monkey PBMCs): 6.0 +/− 5.0 fold increase | IL-1 beta fold increase: mean +/− SD [5]: 1.3 +/− 0.5 fold increase | IL-6 fold increase: mean +/− SD [5]: 9.6 +/− 7.3 fold increase | IL-10 fold increase: mean +/− SD [5]: 1.0 +/− 0.1 fold increase | IL-12 fold increase: mean +/− SD [5]: 2.4 +/− 2.2 fold increase | IL-10 fold increase: mean +/− SD (chimpanzee PBMCs): 2.1 +/− 1.1 fold increase | IL-12 fold increase: mean +/− SD (chimpanzee PBMCs): 13.2 +/− 8.2 fold increase | TNF-alpha fold increase: mean +/− SD (chimpanzee PBMCs): 7.9 +/− 3.9 fold increase

CCGTCC [SEQ ID NO:28]
% NuMA released (treated vs untreated cells) [1]: 0% | % of cells in apoptosis (positive for PS/A-V staining) [2]: 6% | % INHIBITION of Jurkat human leukemia T cell proliferation [3]: 11% | ↑ IL-6 (fold increase treated vs control cells) [4]: 12.6x | ↑ IL-12 (fold increase treated vs control cells) [4]: 3.8x | IL-10 fold increase: mean +/− SD (rhesus monkey PBMCs): 1.1 +/− 0.2 fold increase | IL-12 fold increase: mean +/− SD (rhesus monkey PBMCs): 10.1 +/− 3.7 fold increase | TNF-alpha fold increase: mean +/− SD (rhesus monkey PBMCs): 14.2 +/− 3.7 fold increase | IL-1 beta fold increase: mean +/− SD [5]: 2.1 +/− 1.8 fold increase | IL-6 fold increase: mean +/− SD [5]: 10.4 +/− 13.0 fold increase | IL-10 fold increase: mean +/− SD [5]: 1.0 +/− 0.1 fold increase | IL-12 fold increase: mean +/− SD [5]: 5.9 +/− 10.7 fold increase | IL-10 fold increase: mean +/− SD (chimpanzee PBMCs): 3.8 +/− 2.8 fold increase | IL-12 fold increase: mean +/− SD (chimpanzee PBMCs): 13.3 +/− 8.4 fold increase | TNF-alpha fold increase: mean +/− SD (chimpanzee PBMCs): 10.3 +/− 5.7 fold increase

CG(GT)1A (DNA CGGTA; unmodified DNA) [SEQ ID NO:80]
% NuMA released (treated vs untreated cells) [1]: 9% | % of cells in apoptosis (positive for PS/A-V staining) [2]: 6%

GG(GG)1GGG (DNA GGGTGGG; unmodified DNA)
% NuMA released (treated vs untreated cells) [1]: 26% | % of cells in apoptosis (positive for PS/A-V staining) [2]: 12%

GG(GT)1
% NuMA released (treated vs untreated cells) [1]: 64% | % of cells in apoptosis (positive for PS/A-V staining) [2]: 21%

GGGCGG (unmodified DNA) [SEQ ID NO:46]
% NuMA released (treated vs untreated cells) [1]: 11% | % of cells in apoptosis (positive for PS/A-V staining) [2]: 16% | % INHIBITION of Jurkat human leukemia T cell proliferation [3]: 23% | ↑ IL-6 (fold increase treated vs control cells) [4]: 9.8x | ↑ IL-12 (fold increase treated vs control cells) [4]: 2.3x | IL-10 fold increase: mean +/− SD (rhesus monkey PBMCs): 1.2 +/− 0.2 fold increase | IL-12 fold increase: mean +/− SD (rhesus monkey PBMCs): 11.0 +/− 4.4 fold increase | TNF-alpha fold increase: mean +/− SD (rhesus monkey PBMCs): 16.8 +/− 4.1 fold increase | IL-1 beta fold increase: mean +/− SD [5]: 1.2 +/− 0.3 fold increase | IL-6 fold increase: mean +/− SD [5]: 15.8 +/− 16.2 fold increase | IL-10 fold increase: mean +/− SD [5]: 1.0 +/− 0.1 fold increase | IL-12 fold increase: mean +/− SD [5]: 3.0 +/− 3.8 fold increase | IL-10 fold increase: mean +/− SD (chimpanzee PBMCs): 4.7 +/− 3.4 fold increase | IL-12 fold increase: mean +/− SD (chimpanzee PBMCs): 15.8 +/− 10.4 fold increase | TNF-alpha fold increase: mean +/− SD (chimpanzee PBMCs): 14.1 +/− 6.6 fold increase

GGGGGG [SEQ ID NO:44]
% NuMA released (treated vs untreated cells) [1]: 0% | % of cells in apoptosis (positive for PS/A-V staining) [2]: 5% | % INHIBITION of Jurkat human leukemia T cell proliferation [3]: 26% | ↑ IL-6 (fold increase treated vs control cells) [4]: 15.1x | ↑ IL-12 (fold increase treated vs control cells) [4]: 0.0x | IL-10 fold increase: mean +/− SD (rhesus monkey PBMCs): 2.1 +/− 1.0 fold increase | IL-12 fold increase: mean +/− SD (rhesus monkey PBMCs): 10.7 +/− 5.6 fold increase | TNF-alpha fold increase: mean +/− SD (rhesus monkey PBMCs): 13.9 +/− 8.5 fold increase | IL-1 beta fold increase: mean +/− SD [5]: 7.1 +/− 9.4 fold increase | IL-6 fold increase: mean +/− SD [5]: 21.0 +/− 14.7 fold increase | IL-10 fold increase: mean +/− SD [5]: 1.7 +/− 1.6 fold increase | IL-12 fold increase: mean +/− SD [5]: 7.0 +/− 12.5 fold increase | IL-10 fold increase: mean +/− SD (chimpanzee PBMCs): 11.2 +/− 9.1 fold increase | IL-12 fold increase: mean +/− SD (chimpanzee PBMCs): 15.1 +/− 10.0 fold increase | TNF-alpha fold increase: mean +/− SD (chimpanzee PBMCs): 13.8 +/− 6.5 fold increase

GGGGTGG (unmodified DNA) [SEQ ID NO:62]
% NuMA released (treated vs untreated cells) [1]: 123% | % of cells in apoptosis (positive for PS/A-V staining) [2]: 30% | % INHIBITION of Jurkat human leukemia T cell proliferation [3]: 41%

GGGTG (unmodified DNA) [SEQ ID NO:61]
% NuMA released (treated vs untreated cells) [1]: 92% | % of cells in apoptosis (positive for PS/A-V staining) [2]: 25% | % INHIBITION of Jurkat human leukemia T cell proliferation [3]: 50%

GGGTGGGTGGGTGGGTGGGTGGGTGGG [SEQ ID NO:2]
% of cells in phase: G0/G1 [6]: 34.3% | % of cells in phase: G2/M [6]: 26.4% | % of cells in phase: SE [6]: 15.5% | % of cells in phase: SL [6]: 10.3% | % of cells in phase: SM [6]: 13.6% | Arrest (cell cycle) [6]: None | % NUMA RELEASED ([1]; Jurkat 1×10^6/ml): 49% | % INHIBITION of Jurkat human leukemia T cell proliferation [3]: 23%

GGTG (unmodified DNA) [SEQ ID NO:56]
% NuMA released (treated vs untreated cells) [1]: 112% | % of cells in apoptosis (positive for PS/A-V staining) [2]: 24% | % INHIBITION of Jurkat human leukemia T cell proliferation [3]: 54%

GGTGG (unmodified DNA) [SEQ ID NO:60]
% NuMA released (treated vs untreated cells) [1]: 120% | % of cells in apoptosis (positive for PS/A-V staining) [2]: 25% | % INHIBITION of Jurkat human leukemia T cell proliferation [3]: 50%

GTGG (unmodified DNA) [SEQ ID NO:52]
% NuMA released (treated vs untreated cells) [1]: 60% | % of cells in apoptosis (positive for PS/A-V staining) [2]: 24% | % INHIBITION of Jurkat human leukemia T cell proliferation [3]: 52%

Source: patent US20070213291A1, “Therapeutically useful synthetic oligonucleotides” (priority 1999, published 2007)
